Data: patent US12241090B2, “Methods and systems for converting precursor cells into gastric tissues through directed differentiation” (CHILDREN'S HOSPITAL MEDICAL CENTER, priority 2014, dated 2025)

Columns and labels:
[1] = system: hPSC-derived foregut spheroids; assay: Fundus specification protocol: Wnt signaling at days 6-9 of gastric organoid differentiation, qPCR; format: cell-based, human; details: CHIR 2 uM
Experimental: Next, the function of Wnt signaling in the regulation of fundus-antrum patterning at days 6-9 of the gastric organoid differentiation protocol was tested. Addition of Wnt3a (at 100 ng/mL and 500 ng/mL) had no effect on spheroid gene expression, but it […] expression of the Wnt target gene Axin2. Thus, the effects of the small molecule CHIR99021 (CHIR; 2 uM) were tested. CHIR99021 stimulates Wnt signaling in a receptor-independent fashion.
(§1) Analysis was performed using the ΔΔCT method.

[2] = system: hPSC-derived definitive endoderm (DE) cultures; assay: Endoderm patterning of hPSC-derived DE cultures with growth factors/antagonists, qPCR and immunofluorescence; format: cell-based, human; details: CHIR 2 μM, compared with recombinant WNT3A
Experimental: Following DE induction, cells were treated for three days with growth factors/antagonists in RPMI 1640 with 2.0% dFBS. […] RA (2 μM; Sigma Aldrich) is added on the final day. Three-dimensional growth and antral specification. Posterior foregut spheroids were embedded in Matrigel (BD Biosciences) as previously described^10, 12 and subsequently grown in Advanced DMEM/F12 (Invitrogen) supplemented with N2 (Invitrogen), B27 (Invitrogen), L-glutamine, 10 μM HEPES, penicillin/streptomycin, and EGF (100 ng ml^−1; R&D Systems). For antral specification, RA and noggin were added for the first three days of three-dimensional growth. For endocrine cell specification, the EGF concentration is lowered to 10 ng ml^−1 at day 30.
The media was changed every day.

[3] = system: human antral gastric organoids (hGOs); assay: Growth, morphogenesis and endocrine cell specification of human antral gastric organoids at different EGF concentrations; format: cell-based
Experimental: (§2) Following DE induction, cells were treated for three days with growth factors/antagonists in RPMI 1640 with 2.0% dFBS. […] CHIR99021 is a small molecule that stimulates the Wnt signaling pathway. RA (2 μM; Sigma Aldrich) is added on the final day. Three-dimensional growth and antral specification. Posterior foregut spheroids were embedded in Matrigel (BD Biosciences) as previously described^10, 12 and subsequently grown in Advanced DMEM/F12 (Invitrogen) supplemented with N2 (Invitrogen), B27 (Invitrogen), L-glutamine, 10 μM HEPES, penicillin/streptomycin, and EGF (100 ng ml^−1; R&D Systems). For antral specification, RA and noggin were added for the first three days of three-dimensional growth. For endocrine cell specification, the EGF concentration is lowered to 10 ng ml^−1 at day 30.
(§3) The spheroids were transferred to a three-dimensional in vitro culture system as previously described5, 10, 12. Briefly, spheroids were collected, resuspended in 50 μl Matrigel (BD Biosciences), and plated in a three-dimensional droplet. After Matrigel was allowed to solidify for 10-15 minutes in a tissue culture incubator, spheroids were overlaid with gut media: Advanced DMEM/F12 with N2 (Invitrogen), B27 (Invitrogen), L-glutamine, 10 μM HEPES, penicillin/streptomycin, and EGF (100 ng ml^−1; R&D Systems). For the first three days, RA and Noggin were added to the gut media. Media was replaced every 3-4 days, as necessary. At day 20, organoids were collected and re-plated in fresh Matrigel at dilution of ˜1:12.
All tissues were fixed in 4% paraformaldehyde for either one hour at room temperature for frozen processing or overnight at 4° C. for paraffin processing. For frozen sections, tissue was protected in 30% sucrose overnight at 4° C., then embedded in OCT (Tissue-Tek), and cut at 10 μm. For paraffin sections, tissue was processed through a graded ethanol series, followed by xylene, and then embedded in paraffin and cut at 7 μm. Tissue culture cells were fixed for 15 minutes at room temperature and stained directly. For staining, frozen slides were thawed to room temperature and rehydrated in PBS, while paraffin slides were deparaffinized and subjected to antigen retrieval. Slides were blocked in 5% normal donkey serum (Jackson Immuno Research) in PBS plus 0.5% Triton-X for 30 minutes at room temperature. Primary antibodies (listed in Methods Table 1) were diluted in blocking buffer and incubated overnight at 4° C. Slides were washed in PBS and incubated with secondary antibody for one hour at room temperature, and coverslips were mounted using Fluoromount-G (Southern Biotech). Confocal images were captured on a Nikon A1Rsi inverted confocal microscope.
as §1

[4] = system: posterior foregut spheroids; assay: Three-dimensional culture of posterior foregut spheroids with RA, qPCR of organ lineage markers; format: cell-based, human; details: RA (2 μM) for 72 hours (days 6-9)
Experimental: as §2
as §3, with “Media was replaced every 3-4 days, as necessary. At day 20, organoids were collected and re-plated in fresh Matrigel at dilution of ˜1:12.” left out

Molecule: Cc1c[nH]c(-c2cnc(NCCNc3ccc(C#N)cn3)nc2-c2ccc(Cl)cc2Cl)n1 [CHIR99021]
- Pdx1 expression levels [1]: robust repression
- expression of fundus-specific markers IRX3 and IRX5 [1]: induced high levels
- expression of the intestinal marker Cdx2 [1]: did not induce
- posteriorizing effects on endoderm [2]: same posteriorizing effects as recombinant WNT3A

Molecule: EGF: growth factor EGF (R&D Systems) added to gut media
- endocrine cell formation ([3]; EGF 10 ng ml^−1 from day 30-34): abundance of endocrine cells
- organoid diameter ([3]; EGF 100 ng mL^−1, over 3-4 weeks, from spheroids <100 μm): 2-4 mm
- endocrine cells per organoid ([3]; EGF 100 ng ml^−1, 34-day hGOs): < 1 endocrine cell per organoid
- expression of proendocrine transcription factor NEUROG3 ([3]; high EGF (100 ng ml^−1), qPCR at day 34): inhibited

Molecule: CC1=C(/C=C/C(C)=C/C=C/C(C)=C/C(=O)O)C(C)(C)CCC1 [RA, retinoic acid]
- increase in PDX1 mRNA levels [4]: > 100 fold
